Experimental findings from patent US20140357633A1, “COMPOUNDS FOR INHIBITING THE INTERACTION OF BCL2 WITH BINDING PARTNERS” (NOVARTIS AG, priority 2011, published 2014) are described below.

Each structure is given as a SMILES string. “And” between values parts separate entries of the source, which are not always exact repeats. Identical values can stand only once.

Assay [1] deals with BCL-2 (binding to BAD peptide) (Homo sapiens, UniProt P10415). Briefly: SPR (Biacore) solution inhibition assay, BCL-2 binding to immobilized BAD peptide. The conditions noted are these: biotinylated BAD peptide surface, 56 nM BCL-2, 25° C.; range = high and low IC50 values from multiple experiments; read-out: BCL2_SPR IC50 BAD. The gist of the method: (§1)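 Compounds (6-point threefold series, 16 μM to 0.004 nM) preincubated 1 h with 56 nM BCL-2, then injected 60 s over biotinylated peptide captured on streptavidin chips at 25° C. Running buffer: 10 mM HEPES pH 7.4, 150 mM NaCl, 1.25 mM DTT, 3% DMSO, 0.05% polysorbate 20. % inhibition versus BCL-2-only binding gave IC50.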
Sequence of BCL-2 (binding to BAD peptide) (P10415 whole entry): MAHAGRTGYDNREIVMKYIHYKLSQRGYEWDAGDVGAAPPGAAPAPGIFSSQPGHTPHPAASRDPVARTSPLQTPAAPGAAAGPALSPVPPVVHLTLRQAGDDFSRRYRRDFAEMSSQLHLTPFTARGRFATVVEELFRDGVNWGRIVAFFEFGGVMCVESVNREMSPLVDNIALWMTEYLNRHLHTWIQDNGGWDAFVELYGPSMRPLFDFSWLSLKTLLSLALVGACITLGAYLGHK

Assay [2] addresses BCL-2 (binding to BAK peptide) (Homo sapiens, UniProt P10415). As to the kind of experiment: SPR (Biacore) solution inhibition assay, BCL-2 binding to immobilized BAK peptide. The conditions noted are these: biotinylated BAK peptide surface, 56 nM BCL-2, 25° C.; range = high and low IC50 values from multiple experiments; read-out: BCL2_SPR IC50 BAK. The gist of the method:
as §1
(In general: SPR reads the build-up and loss of mass on a sensor chip optically.)

Sequence of BCL-2 (binding to BAK peptide) (P10415 whole entry): as above

The term IC50 denotes the concentration that gives 50% inhibition. As to `CCCCN(CCCC)C(=O)c1cc(C)n(-c2ccc(NC(=O)Cc3cccc(Br)c3)cc2C(=O)N2Cc3ccccc3C[C@H]2CO)n1` [Example 138], the 50% inhibitory concentration (IC50) lay in the range of 56.1 to 60.8 nM in assay [1] and 43.8 to 53 nM in assay [2].
As to `CCCCN(CCCC)C(=O)c1cc(C)n(-c2ccc(NC(=O)Cc3ccccc3Cl)cc2C(=O)N2Cc3ccccc3C[C@H]2CO)n1` [Example 139], the IC50 in assay [1] was 276 to 287 nM; in assay [2], 192 to 194 nM.
With `CCCCN(CCCC)C(=O)c1cc(C)n(-c2ccc(NC(=O)c3cccc(-c4ccccc4F)c3)cc2C(=O)N2Cc3ccccc3C[C@H]2CO)n1` [Example 140], the IC50 in assay [1] fell in the range of 315 to 343 nM; in assay [2], 275 to 287 nM.
For the compound `CCCCN(CCCC)C(=O)c1cc(C)n(-c2ccc(NC(=O)c3ccc(Oc4ccccc4)nc3)cc2C(=O)N2Cc3ccccc3C[C@H]2CO)n1` [Example 141], the figures for the half-maximal inhibitory concentration (IC50) in assay [1] and in assay [2] were 2470 to 2630 nM and 1970 to 2070 nM, respectively.
For `CCCCN(CCCC)C(=O)c1cc(C)n(-c2ccc(NC(=O)c3ccc(COC)o3)cc2C(=O)N2Cc3ccccc3C[C@H]2CO)n1` [Example 142], the IC50 in assay [1] was 1130 to 1300 nM; in assay [2], 935 to 1120 nM.
For the compound `CCCCN(CCCC)C(=O)c1cc(C)n(-c2ccc(NC(=O)c3ccc(NS(=O)(=O)Cc4ccccc4)cc3)cc2C(=O)N2Cc3ccccc3C[C@H]2CO)n1` [Example 143], the concentration for half-maximal inhibition (IC50) in assay [1] was in the range of 455 to 539 nM; in assay [2], 426 to 594 nM.
On the same counts, the results for `CCCCN(CCCC)C(=O)c1cc(C)n(-c2ccc(NC(=O)c3csc(-c4cccc(Cl)c4Cl)n3)cc2C(=O)N2Cc3ccccc3C[C@H]2CO)n1` [Example 144] are 2630 to 2750 nM and 1260 to 1350 nM.
In the case of `CCCCN(CCCC)C(=O)c1cc(C)n(-c2ccc(NC(=O)c3cc(F)ccc3C(F)(F)F)cc2C(=O)N2Cc3ccccc3C[C@H]2CO)n1` [Example 145], the IC50 was 1670 nM and 1170 to 1220 nM in assay [1]; 1250 to 1270 nM and 964 to 1220 nM in assay [2].
Turning to `CCCCN(CCCC)C(=O)c1cc(C)n(-c2ccc(NC(=O)c3ccccc3Nc3ccccc3[N+](=O)[O-])cc2C(=O)N2Cc3ccccc3C[C@H]2CO)n1` [Example 146], the half-inhibitory concentration (IC50) is 467 to 500 nM in assay [1] and 396 to 471 nM in assay [2].
`CCCCN(CCCC)C(=O)c1cc(C)n(-c2ccc(NC(=O)c3ccc4c(c3)nnn4C(C)C)cc2C(=O)N2Cc3ccccc3C[C@H]2CO)n1` [Example 147]: the half-inhibitory concentration (IC50) in assay [1] fell in the range of 306 to 381 nM; in assay [2], 298 to 315 nM.
For the compound `CCCCN(CCCC)C(=O)c1cc(C)n(-c2ccc(NC(=O)c3[nH]c4ccccc4c3-c3ccccc3)cc2C(=O)N2Cc3ccccc3C[C@H]2CO)n1` [Example 148], the 50% inhibitory concentration (IC50) in assay [1] was in the range of 619 to 638 nM; in assay [2], 595 to 598 nM.
On the same counts, the results for `CCCCN(CCCC)C(=O)c1cc(C)n(-c2ccc(NC(=O)c3cc4c(OC)c(OC)ccc4[nH]3)cc2C(=O)N2Cc3ccccc3C[C@H]2CO)n1` [Example 149] are 142 to 164 nM and 161 to 162 nM.
Turning to `CCCCN(CCCC)C(=O)c1cc(C)n(-c2ccc(NC(=O)c3cccnc3Nc3cccc(C(F)(F)F)c3)cc2C(=O)N2Cc3ccccc3C[C@H]2CO)n1` [Example 150], the 50% inhibitory concentration (IC50) in assay [1] was in the range of 431 to 444 nM; in assay [2] it was 597 to 598 nM.
On to `CCCCN(CCCC)C(=O)c1cc(C)n(-c2ccc(NC(=O)CS(=O)(=O)c3ccccc3)cc2C(=O)N2Cc3ccccc3C[C@H]2CO)n1` [Example 152], for which the values for the concentration for half-maximal inhibition (IC50) in assay [1] and in assay [2] were 348 to 392 nM and 339 to 358 nM, respectively.
In the same order, the values of `CCCCN(CCCC)C(=O)c1cc(C)n(-c2ccc(NC(=O)c3cc(OC)ccc3O)cc2C(=O)N2Cc3ccccc3C[C@H]2CO)n1` [Example 153] are 438 to 511 nM and 393 to 448 nM.
As to `CCCCN(CCCC)C(=O)c1cc(C)n(-c2ccc(NC(=O)c3ccc(SC(F)(F)F)cc3)cc2C(=O)N2Cc3ccccc3C[C@H]2CO)n1` [Example 154], the figures for the IC50 in assay [1] and in assay [2] were 5790 to 6250 nM and 2380 to 4330 nM, respectively.
Take `CCCCN(CCCC)C(=O)c1cc(C)n(-c2ccc(NC(=O)c3cn(C)nc3C(F)(F)F)cc2C(=O)N2Cc3ccccc3C[C@H]2CO)n1` [Example 155]: the half-inhibitory concentration (IC50) in assay [1] is 778 to 972 nM; in assay [2], 729 to 935 nM.
Consider `CCCCN(CCCC)C(=O)c1cc(C)n(-c2ccc(NC(=O)c3ccc(-c4ccc(OC)cc4)[nH]c3=O)cc2C(=O)N2Cc3ccccc3C[C@H]2CO)n1` [Example 156], for which the IC50 in assay [1] lay in the range of 1740 to 1800 nM; in assay [2] it was 1830 to 2380 nM.
In the same order, the values of `CCCCN(CCCC)C(=O)c1cc(C)n(-c2ccc(NC(=O)Cc3ccc(O)cc3)cc2C(=O)N2Cc3ccccc3C[C@H]2CO)n1` [Example 157] are 80.3 to 93.4 nM and 64.7 to 75.3 nM.
In the same order, the values of `CCCCN(CCCC)C(=O)c1cc(C)n(-c2ccc(NC(=O)Cc3ccc(F)cc3Cl)cc2C(=O)N2Cc3ccccc3C[C@H]2CO)n1` [Example 158] are 537 to 546 nM and 436 to 500 nM.
On to `CCCCN(CCCC)C(=O)c1cc(C)n(-c2ccc(NC(=O)Cc3c(F)cccc3Cl)cc2C(=O)N2Cc3ccccc3C[C@H]2CO)n1` [Example 159], for which the IC50 in assay [1] lay in the range of 574 to 596 nM; in assay [2], 409 to 430 nM.
With `CCCCN(CCCC)C(=O)c1cc(C)n(-c2ccc(NC(=O)Cc3cccc(C#N)c3)cc2C(=O)N2Cc3ccccc3C[C@H]2CO)n1` [Example 160], the concentration for half-maximal inhibition (IC50) lay within 229 to 238 nM in assay [1] and 180 to 193 nM in assay [2].
For the compound `CCCCN(CCCC)C(=O)c1cc(C)n(-c2ccc(NC(=O)C(C)c3noc4ccccc34)cc2C(=O)N2Cc3ccccc3C[C@H]2CO)n1` (stereo partly drawn) [Example 161], the IC50 in assay [1] is 3070 to 3910 nM; in assay [2], 1330 to 1560 nM.
`CCCCN(CCCC)C(=O)c1cc(C)n(-c2ccc(NC(=O)[C@H](OC)c3ccc4ccccc4c3)cc2C(=O)N2Cc3ccccc3C[C@H]2CO)n1` [Example 162]: the IC50 fell in the range of 43.5 to 44.3 nM in assay [1] and 36.1 to 36.8 nM in assay [2].
